From patent publication US11090276B2, “Formulation of fat-soluble vitamin” (BASF SE, priority 2014, dated 2021)

Assay: Loss of MK-7 on direct compression into tablets with calcium or magnesium excipients
Format: physicochemical
Settings: directly compressed with excipients such as calcium or magnesium
Source text: However, vitamins K1 and K2 degrade when formulated in a conventional dosage form, such as a tablet, in the presence of mineral salts, in particular calcium or magnesium salts. Moreover, during formulation of the dosage form, there is a still yet further opportunity for degradation. When directly compressed along with some excipients in a tablet such as calcium or magnesium, a serious reduction in the amount of MK-7 present after tableting can be observed, such as up to 30% reduction in MK-7. As MK-7 is expensive, that is not an acceptable loss on formulation. The MK-7 degradation appears to be accelerated in the presence of calcium or magnesium. As calcium and magnesium are valuable minerals, it is desirable to be able to formulate vitamins in general and MK-7 in particular with calcium and magnesium.

reduction in MK-7 after tableting: up to 30%
SMILES: CC(C)=CCC/C(C)=C/CC/C(C)=C/CC/C(C)=C/CC/C(C)=C/CC/C(C)=C/CC/C(C)=C/CC1=C(C)C(=O)c2ccccc2C1=O [MK-7]
